Results on two molecules are retold here after ChEMBL document CHEMBL1126778, “Adenosine A1 antagonists. 3. Structure-activity relationships on amelioration against scopolamine- or N6-((R)-phenylisopropyl)adenosine-induced cognitive disturbance” (J Med Chem, 1993).

pKi: −log10 of the molar value. Bounds are passed on as bounds.

Assay [1] has as its system Rattus norvegicus. In words: Acquisition time in Scopolamine induced avoidance test (performed in rat) for antagonistic activity after p.o. administration of 5 mg/kg. As to conditions: route oral. Format: functional.
The subject of assay [2] is Mus musculus. Nature of the assay: Acquisition time in (R)-PIA) induced avoidance test (performed in mice) for antagonistic activity after peroral administration of 5 mg/kg. Format: functional. The note with it: route oral.
Assay [3] concerns the target Adenosine A2 receptor (Rattus norvegicus, UniProt P29276+P30543). In words: Binding affinity against Adenosine A2 receptor from rat striatal membranes with N-[3H] ethyladenosin-5'-uronamide.
Assay [4] relates to Rattus norvegicus. In words: Acquisition time in Scopolamine induced avoidance test (performed in rat) for antagonistic activity after p.o. administration of 0.31 mg/kg. Type of assay: functional. The note with it: route oral.
Assay [5] concerns Mus musculus. In words: Acquisition time in (R)-PIA) induced avoidance test (performed in mice) for antagonistic activity after p.o. administration of 1.25 mg/kg. As to conditions: route oral. Type of assay: functional.
The subject of assay [6] is Mus musculus. Nature of the assay: Acquisition time in (R)-PIA) induced avoidance test (performed in mice) for antagonistic activity after p.o. administration of 0.31 mg/kg. Format: functional. As to conditions: route oral.
Assay [7] concerns Mus musculus. In words: Retention time in (R)-PIA) induced avoidance test (performed in mice) for antagonistic activity after p.o. administration of 1.25 mg/kg. Format: functional, organism-based. The arrangement: dose 1.25 mg/kg.
Assay [8] deals with Rattus norvegicus. Nature of the assay: Acquisition time in Scopolamine induced avoidance test (performed in rat) for antagonistic activity after peroral administration of 20 mg/kg. Format: functional. The note with it: route oral.
The test system of assay [9] is Rattus norvegicus. In words: Retention time in Scopolamine induced avoidance test (performed in rat) for antagonistic activity after peroral administration of 20 mg/kg. Also on record: dose 20 mg/kg. Type of assay: functional, organism-based.
Assay [10] concerns Rattus norvegicus. In words: Acquisition time in Scopolamine induced avoidance test (performed in rat) for antagonistic activity after peroral administration of 1.25 mg/kg. Type of assay: functional. As to conditions: route oral.
Assay [11] deals with Rattus norvegicus. Nature of the assay: Acquisition time in Scopolamine induced avoidance test (performed in rat) for antagonistic activity after peroral administration of 0.02 mg/kg. Format: functional. As to conditions: route oral.
In assay [12] the test system is Rattus norvegicus. Nature of the assay: Retention time in Scopolamine induced avoidance test (performed in rat) for antagonistic activity after p.o. administration of 0.08 mg/kg. Format: functional, organism-based. The arrangement: dose 0.08 mg/kg.
The test system of assay [13] is Rattus norvegicus. Nature of the assay: Acquisition time in Scopolamine induced avoidance test (performed in rat) for antagonistic activity after p.o. administration of 0.08 mg/kg. As to conditions: route oral. Format: functional.
Assay [14] relates to Mus musculus. Nature of the assay: Retention time in (R)-PIA) induced avoidance test (performed in mice) for antagonistic activity after peroral of 0.31 mg/kg. The arrangement: dose 0.31 mg/kg. Format: functional, organism-based.
Assay [15] deals with Mus musculus. In words: Retention time in (R)-PIA) induced avoidance test (performed in mice) for antagonistic activity after peroral administration of 5 mg/kg. Type of assay: functional, organism-based. Also on record: dose 5 mg/kg.
Assay [16] deals with Mus musculus. In words: Acquisition time in (R)-PIA) induced avoidance test (performed in mice) for antagonistic activity after peroral administration of 0.08 mg/kg. Type of assay: functional. As to conditions: route oral.
Assay [17] concerns Rattus norvegicus. In words: Retention time in Scopolamine induced avoidance test (performed in rat) for antagonistic activity after p.o. administration of 0.31 mg/kg. The arrangement: dose 0.31 mg/kg. Format: functional, organism-based.
Assay [18] relates to Rattus norvegicus. In words: Retention time in Scopolamine induced avoidance test (performed in rat) for antagonistic activity after peroral administration of 0.02 mg/kg. The arrangement: dose 0.02 mg/kg. Format: functional, organism-based.
Assay [19] concerns Rattus norvegicus. Nature of the assay: Retention time in Scopolamine induced avoidance test (performed in rat) for antagonistic activity after peroral administration of 1.25 mg/kg. Format: functional, organism-based. Also on record: dose 1.25 mg/kg.
The test system of assay [20] is Mus musculus. In words: Retention time in (R)-PIA) induced avoidance test (performed in mice) for antagonistic activity after peroral administration of 0.08 mg/kg. Type of assay: functional, organism-based. The arrangement: dose 0.08 mg/kg.
For assay [21], the system named is Rattus norvegicus. Nature of the assay: Retention time in Scopolamine induced avoidance test (performed in […]) for antagonistic activity after peroral administration of 5 mg/kg. The arrangement: dose 5 mg/kg. Format: functional, organism-based.
Assay [22] concerns the target T1, Adenosine receptor A1 (Cavia porcellus, UniProt P47745).
T1 sequence (P47745 whole entry): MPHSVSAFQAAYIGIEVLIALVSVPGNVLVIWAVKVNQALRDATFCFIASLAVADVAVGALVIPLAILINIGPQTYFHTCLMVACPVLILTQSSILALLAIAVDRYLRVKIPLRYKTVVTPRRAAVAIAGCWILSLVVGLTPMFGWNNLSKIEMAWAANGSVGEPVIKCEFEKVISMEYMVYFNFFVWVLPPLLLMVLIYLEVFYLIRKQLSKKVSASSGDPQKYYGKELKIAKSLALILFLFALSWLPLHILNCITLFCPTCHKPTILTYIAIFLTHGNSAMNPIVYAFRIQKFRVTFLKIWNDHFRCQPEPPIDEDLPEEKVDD
In words: Binding affinity against Adenosine A1 receptor from guinea pig forebrain membranes by N6-[3H]- cyclohexyladenosine displacement.

The subject of assay [23] is Rattus norvegicus. In words: Acquisition time in Scopolamine induced avoidance test (performed in rat) for antagonistic activity after peroral administration of 0.02 mg/kg (n=18). As to conditions: route oral. Type of assay: functional.
For assay [24], the system named is Rattus norvegicus. Nature of the assay: Retention time in Scopolamine induced avoidance test (performed in rat) for antagonistic activity after peroral administration of 0.31 mg/kg (n=18) (P<0.005). The arrangement: dose 0.31 mg/kg. Format: functional, organism-based.
The test system of assay [25] is Rattus norvegicus. Nature of the assay: Retention time in Scopolamine induced avoidance test (performed in rat) for antagonistic activity after peroral administration of 0.08 mg/kg (n=18) (P<0.05). Format: functional, organism-based. Also on record: dose 0.08 mg/kg.
Assay [26] has as its system Rattus norvegicus. Nature of the assay: Acquisition time in Scopolamine induced avoidance test (performed in rat) for antagonistic activity after peroral administration of 0.31 mg/kg (n=18). Type of assay: functional. As to conditions: route oral.
Assay [27] concerns Mus musculus. In words: Retention time in (R)-PIA) induced avoidance test (performed in mice) for antagonistic activity after peroral administration of 1.25 mg/kg (n=15) (P<0.005). Format: functional, organism-based. Also on record: dose 1.25 mg/kg.
The subject of assay [28] is Mus musculus. In words: Acquisition time in (R)-PIA) induced avoidance test (performed in mice) for antagonistic activity after peroral administration of 1.25 mg/kg (n=15). Type of assay: functional. As to conditions: route oral.
The subject of assay [29] is Rattus norvegicus. In words: Acquisition time in Scopolamine induced avoidance test (performed in rat) for antagonistic activity after peroral administration of 0.08 mg/kg (n=18). As to conditions: route oral. Format: functional.
Assay [30] deals with Mus musculus. Nature of the assay: Tested for locomotor activity after oral administration of […] for 120 min. Format: functional.
Assay [31] has as its system Rattus norvegicus. Nature of the assay: Acquisition time in Scopolamine induced avoidance test (performed in rat) for antagonistic activity after peroral administration of 5 mg/kg (n=18). Format: functional. The note with it: route oral.
In assay [32] the test system is Mus musculus. In words: Acquisition time in (R)-PIA) induced avoidance test (performed in mice) for antagonistic activity after peroral administration of 0.08 mg/kg (n=15). As to conditions: route oral. Format: functional.
The test system of assay [33] is Mus musculus. In words: Acquisition time in (R)-PIA) induced avoidance test (performed in mice) for antagonistic activity after peroral administration of 0.31 mg/kg (n=15). Type of assay: functional. As to conditions: route oral.
The test system of assay [34] is Rattus norvegicus. Nature of the assay: Retention time in Scopolamine induced avoidance test (performed in rat) for antagonistic activity after peroral administration of 5 mg/kg (n=18) (P<0.05). Also on record: dose 5 mg/kg. Type of assay: functional, organism-based.
For assay [35], the system named is Rattus norvegicus. Nature of the assay: Acquisition time in Scopolamine induced avoidance test (performed in rat) for antagonistic activity after peroral administration of 1.25 mg/kg (n=18). Type of assay: functional. The note with it: route oral.
The test system of assay [36] is Rattus norvegicus. Nature of the assay: Retention time in Scopolamine induced avoidance test (performed in […]) for antagonistic activity after peroral administration of 1.25 mg/kg (n=18) (P<0.05). Format: functional, organism-based. The arrangement: dose 1.25 mg/kg.
For assay [37], the system named is Mus musculus. Nature of the assay: Retention time in (R)-PIA) induced avoidance test (performed in mice) for antagonistic activity after peroral administration of 20 mg/kg (n=15) (P<0.05). Type of assay: functional, organism-based. Also on record: dose 20 mg/kg.
Assay [38] relates to Rattus norvegicus. In words: Retention time in Scopolamine induced avoidance test (performed in rat) for antagonistic activity after peroral administration of 0.02 mg/kg (n=18) (P<0.05). Type of assay: functional, organism-based. The arrangement: dose 0.02 mg/kg.
Assay [39] relates to Mus musculus. Nature of the assay: Acquisition time in (R)-PIA) induced avoidance test (performed in mice) for antagonistic activity after peroral administration of 5 mg/kg (n=15). Type of assay: functional. The note with it: route oral.
In assay [40] the test system is Mus musculus. Nature of the assay: Retention time in (R)-PIA) induced avoidance test (performed in mice) for antagonistic activity after peroral administration of 0.08 mg/kg (n=15) (P<0.005). Type of assay: functional, organism-based. Also on record: dose 0.08 mg/kg.
Assay [41] deals with Mus musculus. Nature of the assay: Retention time in (R)-PIA) induced avoidance test (performed in mice) for antagonistic activity after peroral administration of 0.31 mg/kg (n=15) (P<0.01). Also on record: dose 0.31 mg/kg. Type of assay: functional, organism-based.
Assay [42] relates to Mus musculus. Nature of the assay: Tested for locomotor activity after oral administration of 10 mg/kg for 120 min. Type of assay: functional.

On to `CCCn1c(=O)c2[nH]c(C3CCCC3)nc2n(CCC)c1=S`, for which the Acquisition time in assay [1] stood at 8.5 s; in [2], 26.9 s; in assay [4] it was 8.9 s; in assay [5], 12.3 s; in assay [6] it was 32.7 s; in assay [8], 6.7 s. For the same molecule, the Acquisition time in [10] was 9.9 s; in [11], 8.9 s; in [13], 9.4 s; in assay [16] it was 24.7 s. Further, the Ki (in general, the equilibrium dissociation constant of an inhibitor or competing ligand from its target) in assay [3] is given as > 10000 nM. Besides, the Retention time was determined as 52.7 s in assay [7]; 52.4 s in assay [9]; 75.3 s in assay [12]; 121 s in assay [14]; 104 s in assay [15]; 25.8 s in assay [17]. In addition, the Retention time in [18] was 19 s; in assay [19], 56.4 s; in [20] it was 48.1 s; in assay [21] it was 21.6 s. For the same molecule, the pKi (commonly the negative decadic logarithm of the Ki, by convention in mol/L) in assay [22] was 8.18.
In the case of `CCCn1c(=O)c2nc(C3CCC(=O)C3)[nH]c2n(CCC)c1=O` (configuration not stated), the Acquisition time in assay [23] came out at 16.4 s; in assay [26] it was 13.2 s; in assay [28], 15.1 s; in [29] it was 12.8 s; in [31], 9.8 s; in assay [32], 20.8 s. The Acquisition time is reported as 22 s in [33], 11.4 s in assay [35] and 15.1 s in assay [39]. Moreover, the Retention time in [24] came out at 163 s; in assay [25], 126 s; in assay [27], 339 s; in assay [34], 75.9 s; in assay [36] it was 85.9 s; in assay [37] it was 319 s. Besides, the Retention time came out at 169 s in [38], 322 s in assay [40] and 234 s in [41]. For the same molecule, the results for the Locomotor activity in [30] and in [42] were 6134 Counts and 8204 Counts, respectively.
